# Experimental data published in article PMC5478857, “Metabolic Products of Linalool and Modulation of GABAA Receptors” (Frontiers in Chemistry, 2017).
# Test system: T1, GABAA receptor α1β2γ2
# T1 construct: gene GABRA1; α1β2γ2 heteromer transiently expressed in HEK293 cells; with GABAA receptor β2 and γ2 subunits
# Assay: whole-cell patch clamp, […] co-applied with […] GABA ([…] of GABA current, P < […])
# Format: cell-based
structure (smiles),measurement,value
"C=CC(C)(O)CCC=C(C)C (stereo not shown) [Linalool, 3,7-dimethyl-1,6-octadiene-3-ol]",% of GABA current at 2 mM,160 ± 14 % of GABA current at 2 mM
